Residues, ends and D or L forms follow the SMILES beside them. *: point of attachment. Cbz = O=C(OCc1ccccc1)*; CH2F = FC*
Tests used:
[1] = Cytotoxicity against human MCF7 cells assessed as reduction in cell viability measured after 72 hrs by MTT assay; format: functional; conditions: MCF7, 72 h
[2] = Cytotoxicity against human PC3 cells assessed as reduction in cell viability measured after 72 hrs by MTT assay; format: functional; conditions: PC-3, 72 h
[3] = Cytotoxicity against human 184B5 cells assessed as reduction in cell viability measured after 72 hrs by MTT assay; format: toxicity, cell-based; conditions: for GI50 at 72 h: 184B5 cells; for LC50 / TGI: 184b5, 72 h
MCF7 = assay: Selectivity index, ratio of GI50 for human 184B5 cells to GI50 for human MCF7 cells; format: functional
[4] = Cell cycle analysis in human MCF7 cells assessed as accumulation at SubG1 phase at 6 uM measured after 24 hrs by propidium iodide staining-based flow cytometry (reference value: 2.6%); format: functional
[5] = Cell cycle analysis in human MCF7 cells assessed as accumulation at G0/G1 phase at 6 uM measured after 24 hrs by propidium iodide staining-based flow cytometry (reference value: 73.6%); format: functional
[6] = Cell cycle analysis in human MCF7 cells assessed as accumulation at S phase at 6 uM measured after 24 hrs by propidium iodide staining-based flow cytometry (reference value: 15.3%); format: functional
[7] = Cell cycle analysis in human MCF7 cells assessed as accumulation at G2/M phase at 6 uM measured after 24 hrs by propidium iodide staining-based flow cytometry (reference value: 8.9%); format: functional
[8] = Cell cycle arrest in human MCF7 cells assessed as M1 quadrant cells at 50 uM pretreated with pan-caspase inhibitor Z-VAD-FMK for 1 hr followed by compound addition measured after 48 hrs by propidium iodide staining-based flow cytometry assay (reference value: 98.1%); format: functional; design: scale not given: the % may be the effect or the level left
[9] = Cell cycle arrest in human MCF7 cells assessed as sub-diploid cells at 50 uM pretreated with pan-caspase inhibitor Z-VAD-FMK for 1 hr followed by compound addition measured after 48 hrs by propidium iodide staining-based flow cytometry assay (reference value: 1.9%); format: functional; design: scale not given: the % may be the effect or the level left

Row | Structure (SMILES) | GI50 [1] | LC50 [1] | TGI [1] | GI50 [2] | LC50 (concentration lethal to 50% of cells) [2] | TGI [2] | GI50 at 72 h [3] | LC50 [3] | TGI [3] | RatioGI50 (MCF7) | Activity [4] | Activity [5] | Activity [6] | Activity [7] | Activity [8] | Activity [9]
1 | N#C[Se]CN1C(=O)c2ccccc2C1=O | 15.4 µM | 93.4 µM | 56.1 µM | 11.2 µM | 56.7 µM | 32.1 µM |  |  |  |  |  |  |  |  |  | 
2 | [SeH]c1nc2ccccc2s1 | > 50 µM | > 50 µM | > 50 µM | > 50 µM | > 50 µM | > 50 µM |  |  |  |  |  |  |  |  |  | 
3 | SCc1cc2c(cc1Br)OCO2 | 3.2 µM | > 100 µM | > 100 µM | 87.5 µM | > 100 µM | > 100 µM | > 100 µM | > 100 µM | > 100 µM | >37 |  |  |  |  |  | 
4 | [SeH]c1ccnc([SeH])n1 | 6.7 µM | 75.4 µM | 40 µM | 9.8 µM | 51.3 µM | 28.3 µM | 10.7 µM | 63.7 µM | 35.3 µM | 1.6 |  |  |  |  |  | 
5 | CSc1ccc2ccccc2n1 | > 100 µM | > 100 µM | > 100 µM | 87 µM | > 100 µM | > 100 µM | > 100 µM | > 100 µM | > 100 µM |  |  |  |  |  |  | 
6 | N#C[Se]Cc1c2ccccc2nc2ccccc12 | 40.1 µM | 44.5 µM | 67.6 µM | 16.6 µM | 40 µM | 28.3 µM |  |  |  |  |  |  |  |  |  | 
7 | N#CSc1nc2ccccc2s1 | 40.1 µM | 87.7 µM | 67.6 µM | 42 µM | 85.5 µM | 66.3 µM |  |  |  |  |  |  |  |  |  | 
8 | Sc1ccc2ccccc2n1 | > 100 µM | > 100 µM | > 100 µM | 85.3 µM | > 100 µM | > 100 µM |  |  |  |  |  |  |  |  |  | 
9 | O=C1c2ccccc2C(=O)N1CS | > 100 µM | > 100 µM | > 100 µM | 74.7 µM | > 100 µM | > 100 µM |  |  |  |  |  |  |  |  |  | 
10 | Sc1ccnc(S)n1 | > 100 µM | > 100 µM | > 100 µM | 82.5 µM | > 100 µM | > 100 µM |  |  |  |  |  |  |  |  |  | 
11 | Cc1noc(C)c1C[Se]C#N | 2.2 µM | 24.5 µM | 8.3 µM | 5.6 µM | 17.6 µM | 10.3 µM | 2 µM | 22.8 µM | 4 µM | <1 |  |  |  |  |  | 
12 | N#C[Se]Cc1cc2c(cc1Br)OCO2 | 66.9 µM | > 100 µM | > 100 µM | 24 µM | > 100 µM | 45.7 µM |  |  |  |  |  |  |  |  |  | 
13 | Sc1nc2ccccc2s1 [2-MERCAPTOBENZOTHIAZOLE] | > 100 µM |  | > 100 µM | 84.9 µM |  | > 100 µM |  |  |  |  |  |  |  |  |  | 
14 | N#CSCc1c2ccccc2nc2ccccc12 | 0.9 µM | 34.4 µM | 17.5 µM | 1.5 µM | 28.3 µM | 2.4 µM | 14.4 µM | 38.5 µM | 26.4 µM | 16 |  |  |  |  |  | 
15 | C[Se]c1ccc2ccccc2n1 | 21 µM | > 100 µM | > 100 µM | 83.6 µM | > 100 µM | > 100 µM |  |  |  |  |  |  |  |  |  | 
16 | CC[C@@]1(O)C(=O)OCc2c1cc1n(c2=O)Cc2cc3ccccc3nc2-1 |  |  |  |  |  |  |  |  |  |  | 4.4% | 54.6% | 16.3% | 25.8% |  | 
17 | C[Se]c1nc2ccccc2s1 | 7.2 µM | > 100 µM | > 100 µM | > 100 µM | > 100 µM | > 100 µM | > 100 µM | > 100 µM | > 100 µM | >13.9 |  |  |  |  |  | 
18 | O=C1c2ccccc2C(=O)N1C[SeH] | 6 µM | 12.5 µM | 8.2 µM | 6.4 µM | 16.9 µM | 9.4 µM | 12.7 µM | 21.9 µM | 17.4 µM | 2.1 |  |  |  |  |  | 
19 | N#CSCc1ccc(-n2cccc2)cc1 | 8.2 µM | > 100 µM | 36.9 µM | 14.1 µM | 88.1 µM | 60.3 µM | 12.9 µM | > 100 µM | 23.5 µM | 1.6 |  |  |  |  |  | 
20 | N#CSCc1cc2c(cc1Br)OCO2 | 6.7 µM | > 100 µM | > 100 µM | 23.8 µM | 74.2 µM | 41.8 µM | > 100 µM | > 100 µM | > 100 µM | >14.9 |  |  |  |  |  | 
21 | CC(C)[C@H](NC(=O)OCc1ccccc1)C(=O)N[C@@H](C)C(=O)N[C@@H](CC(=O)O)C(=O)CF (Cbz-Val-Ala-Asp-CH2F) |  |  |  |  |  |  |  |  |  |  |  |  |  |  | 96.1% | 3.9%
22 | N#CSc1nccc(Cl)n1 | 35 µM | > 100 µM | > 100 µM | > 100 µM | > 100 µM | > 100 µM |  |  |  |  |  |  |  |  |  | 
23 | [SeH]Cc1c2ccccc2nc2ccccc12 | 39.1 µM | > 100 µM | > 100 µM | 83.2 µM | > 100 µM | > 100 µM |  |  |  |  |  |  |  |  |  | 
24 | CSc1ccnc(SC)n1 | > 100 µM | > 100 µM | > 100 µM | 77.5 µM | > 100 µM | > 100 µM |  |  |  |  |  |  |  |  |  | 
25 | [SeH]Cc1cc2c(cc1Br)OCO2 | 22.2 µM | > 50 µM | > 50 µM | 34.6 µM | > 50 µM | > 50 µM |  |  |  |  |  |  |  |  |  | 
26 | CSc1nc2ccccc2s1 |  |  |  | 39.6 µM |  |  |  |  |  |  |  |  |  |  |  | 
27 | C[Se](=O)O | 1.3 µM | > 100 µM | 3.4 µM | 2.5 µM | 37.1 µM | 8.4 µM | 1.8 µM | > 100 µM | 3.8 µM | 1.4 |  |  |  |  |  | 
28 | N#CSCN1C(=O)c2ccccc2C1=O | 48.1 µM | > 100 µM | > 100 µM | > 100 µM | > 100 µM | > 100 µM |  |  |  |  |  |  |  |  |  | 

From ChEMBL document CHEMBL3871268, “Chalcogen containing heterocyclic scaffolds: New hybrids with antitumoral activity” (Eur J Med Chem, 2016)
